Here are results for 28 compounds from US20230279016A1, “Tetrahydropyrazolopyrimidines and Related Analogs for Inhibiting YAP/TAZ-TEAD” (THE KATHOLIEKE UNIVERSITEIT LEUVEN, priority 2021, published 2023).

A word on the EC50: it is the midpoint of the concentration-response curve. A high value points to lower potency in that assay.

The test system of the first test is YAP/TAZ-TEAD transcription. Description: Reporter gene assay for measuring the inhibition of YAP/TAZ-TEAD transcription (TEAD-responsive element luciferase reporter in Hek293T cells). As to conditions: Hek293T cells transiently transfected with TEAD-responsive element luciferase reporter, 24 hours incubation. The test is classed as cell-based. How it is done:
Hek293T cells are cultured in DMEM supplemented with 10% fetal bovine serum, Sodium pyruvate, Sodium bicarbonate, L-glutamine. The cells are harvested and transiently transfected with TEAD-responsive element luciferase reporter. Transfected cells are plated in 384-wells plate containing pre-diluted compounds. After 24 hours incubation at 37° C./5%CO2, assay plates were cooled down to RT and levelled to an equal volume per well, prior to the addition of 25 uL luciferase substrate SteadyLite (Perkin Elmer)/well. The plate was shaken for 10 min at 600 rpm, centrifuged for 1min at 500 rpm and measured with an Envision reader (PerkinElmer). The amount of relative light units produced by the TEAD reporter is used to calculated percent of inhibition.
The percent of reporter inhibition was calculated in the presence of a positive control inhibitor (100% inhibition) versus a condition with the presence of the vehicle basal activity of the reporter (0% inhibition). The ability of a test compound to inhibit this activity was determined as:
Percentage inhibition=[1-((RLU determined in the presence of vehicle—RLU determined for sample with test compound present) divided by (RLU determined in the presence of vehicle — RLU determined for sample with positive control inhibitor))] * 100
The activities of the example compounds tested are depicted in the table below. The activity ranges A, B and C refer to EC50 values in the reporter gene assay as described as follows: “A”: EC50 <1 μM; “B” : 1 μM≤EC50≤20 μM and “C” : EC50>20 μM, NT=not tested.
In general terms: A reporter such as luciferase makes a cellular process visible.
Turning to `C=CC(=O)NCC1CN(c2ccc(C(F)(F)F)cc2)c2cc(C)nn2C1` (single isomer, unassigned) [Cpd. No. 029-En1, (R)- or (S)-N-((2-methyl-4-(4-(trifluoromethyl)phenyl)-4,5,6,7-tetrahydropyrazolo[1,5-a]pyrimidin-6-yl)methyl)acrylamide], the EC50 was less than 1000 nM.

For the compound `C=CC(=O)NCC1CN(S(=O)(=O)c2ccc(C(F)(F)F)cc2)c2ccnn2C1` (stereo not shown) [Cpd. No. 045-En2, N-((4-((4-(trifluoromethyl)phenyl)sulfonyl)-4,5,6,7-tetrahydropyrazolo[1,5-a]pyrimidin-6-yl)methyl)acrylamide], the EC50 was more than 20000 nM.

Consider `C=CC(=O)NCC1CN(c2ccc(C(F)(F)F)cc2)c2cc(C#N)nn2C1` (single isomer, unassigned) [Cpd. No. 033-En2, (R)- or (S)-N-((2-cyano-4-(4-(trifluoromethyl)phenyl)-4,5,6,7-tetrahydropyrazolo[1,5-a]pyrimidin-6-yl)methyl)acrylamide], for which the EC50 is less than 1000 nM.

Compound `C=CC(=O)NCC1CN(c2ccc(C(F)(F)F)cc2)c2cc(C#N)nn2C1` (single isomer, unassigned) [Cpd. No. 033-En1, (R)- or (S)-N-((2-cyano-4-(4-(trifluoromethyl)phenyl)-4,5,6,7-tetrahydropyrazolo[1,5-a]pyrimidin-6-yl)methyl)acrylamide] yielded an EC50 of 1000 to 20000 nM.

`CCC(=O)NCC1Cc2nn(Cc3cccc(C(N)=O)c3)cc2N(c2ccc(C(F)(F)F)cc2)C1` (stereo not shown) [Cpd. No. 083, 3-((6-(propionamide-methyl)-4-(4-(trifluoromethyl)phenyl)-4,5,6,7-tetrahydro-2H-pyrazolo[4,3-b]pyridin-2-yl)methyl)benzamide]: the EC50 was more than 20000 nM.

On to `C=CC(=O)NCC1CN(c2ccc3scnc3c2)c2ccnn2C1` (single isomer, unassigned) [Cpd. No. 026-En2, (R)- or (S)-N-((4-(benzo[d]thiazol-5-yl)-4,5,6,7-tetrahydropyrazolo[1,5-a]pyrimidin-6-yl)methyl)acrylamide], for which the EC50 fell in the range of 1000 to 20000 nM.

`C=CC(=O)NCC1CN(c2ccn(C)c(=O)c2)c2ccnn2C1` (single isomer, unassigned) [Cpd. No. 024-En2, (R)- or (S)-N-((4-(1-methyl-2-oxo-1,2-dihydropyridin-4-yl)-4,5,6,7-tetrahydropyrazolo[1,5-a]pyrimidin-6-yl)methyl)acrylamide] displayed an EC50 of more than 20000 nM.

Turning to `C=CC(=O)NCC1CN(c2ccc(OC(F)(F)F)cc2)c2cc(C)nn2C1` (single isomer, unassigned) [Cpd. No. 030-En2, (R)- or (S)-N-((2-methyl-4-(4-(trifluoromethoxy)phenyl)-4,5,6,7-tetrahydropyrazolo[1,5-a]pyrimidin-6-yl)methyl)acrylamide], the EC50 is less than 1000 nM.

With `C=CC(=O)NCC1CN(c2ccc(F)cc2)c2ccnn2C1` (single isomer, unassigned) [Cpd. No. 006-En2, (R)- or (S)-N-((4-(4-fluorophenyl)-4,5,6,7-tetrahydropyrazolo[1,5-a]pyrimidin-6-yl)methyl)acrylamide], the EC50 was less than 1000 nM.

Compound `C=CC(=O)NCC1CN(c2ccc(C(F)(F)F)cc2)c2cc(C(F)(F)F)nn2C1` (single isomer, unassigned) [Cpd. No. 034-En2, (R)- or (S)-N-((2-(trifluoromethyl)-4-(4-(trifluoromethyl)phenyl)-4,5,6,7-tetrahydropyrazolo[1,5-a]pyrimidin-6-yl)methyl)acrylamide] came in with a concentration for a half-maximal effect (EC50) of less than 1000 nM.

Consider `C=CC(=O)NCC1CN(c2ccc(C(F)F)cc2)c2ccnn2C1` (single isomer, unassigned) [Cpd. No. 009-En2, (R)- or (S)-N-((4-(4-(difluoromethyl)phenyl)-4,5,6,7-tetrahydropyrazolo[1,5-a]pyrimidin-6-yl)methyl)acrylamide], for which the EC50 was less than 1000 nM.

Compound `C=CC(=O)NCC1CN(c2ccc(C(F)(F)F)cc2)c2ccnn2C1` (single isomer, unassigned) [Cpd. No. 002-En2, (R)- or (S)-N-((4-(4-(trifluoromethyl)phenyl)-4,5,6,7-tetrahydropyrazolo[1,5-a]pyrimidin-6-yl)methyl)acrylamide] returned an EC50 of less than 1000 nM.

Regarding `C=CC(=O)NCC1CN(c2ccc(C(F)(F)F)cc2)c2cc(C(F)(F)F)nn2C1` (single isomer, unassigned) [Cpd. No. 034-En1, (R)- or (S)-N-((2-(trifluoromethyl)-4-(4-(trifluoromethyl)phenyl)-4,5,6,7-tetrahydropyrazolo[1,5-a]pyrimidin-6-yl)methyl)acrylamide], the EC50 is less than 1000 nM.

Still in this test, the particulars now being: Homo sapiens, HEK-293T, 24 h, Hek293T cells transiently transfected with TEAD-responsive element luciferase reporter, 24 hours incubation.
`CNC(=O)C1CN(c2ccc(C(F)(F)F)cc2)c2ccnn2C1` (stereo not shown) [Cpd. No. 092, N-methyl-4-(4-(trifluoromethyl)phenyl)-4,5,6,7-tetrahydropyrazolo[1,5-a]pyrimidine-6-carboxamide] displayed an EC50 of more than 20000 nM.

Take `C=CC(=O)NC1CN(c2ccc(C(F)(F)F)c(F)c2)c2ccnn2C1` (stereo not shown) [Cpd. No. 064, N-(4-(3-fluoro-4-(trifluoromethyl)phenyl)-4,5,6,7-tetrahydropyrazolo[1,5-a]pyrimidin-6-yl)acrylamide]: the EC50 is less than 1000 nM.

As for `CS(=O)(=O)NC1CN(c2ccc(C(F)(F)F)cc2)c2ccnn2C1` (stereo not shown) [Cpd. No. 067, N-(4-(4-(trifluoromethyl)phenyl)-4,5,6,7-tetrahydropyrazolo[1,5-a]pyrimidin-6-yl)methanesulfonamide], the EC50 is more than 20000 nM.

Consider `CCC(=O)NCC1Cc2c(cnn2C)N(c2ccc(C(F)(F)F)cc2)C1` (stereo not shown) [Cpd. No. 072, N-((1-methyl-4-(4-(trifluoromethyl)phenyl)-4,5,6,7-tetrahydro-1H-pyrazolo[4,3-b]pyridin-6-yl)methyl)propionamide], for which the EC50 was more than 20000 nM.

Compound `C=CC(=O)NCC1CN(c2ccc(C(F)(F)F)cc2)c2cc(C#N)nn2C1` (stereo not shown) [Cpd. No. 033, N-((2-cyano-4-(4-(trifluoromethyl)phenyl)-4,5,6,7-tetrahydropyrazolo[1,5-a]pyrimidin-6-yl)methyl)acrylamide] registered an EC50 of less than 1000 nM.

Take `CC(=O)N(CC#N)CC1CN(c2ccc(C(F)(F)F)cc2)c2ccnn2C1` (stereo not shown) [Cpd. No. 043, N-(cyanomethyl)-N-((4-(4-(trifluoromethyl)phenyl)-4,5,6,7-tetrahydropyrazolo[1,5-a]pyrimidin-6-yl)methyl)acetamide]: the half-maximal effective concentration (EC50) was more than 20000 nM.

`C=CC(=O)NCC1CN(Cc2ccccc2)c2ccnn2C1` (single isomer, unassigned) [Cpd. No. 049-En2, (R)- or (S)-N-((4-benzyl-4,5,6,7-tetrahydropyrazolo[1,5-a]pyrimidin-6-yl)methyl)acrylamide] had an EC50 of less than 1000 nM.

Consider `C=CC(=O)NCC1CN(c2cnn(C(F)F)c2)c2ccnn2C1` (stereo not shown) [Cpd. No. 025, N-((4-(1-(difluoromethyl)-1H-pyrazol-4-yl)-4,5,6,7-tetrahydropyrazolo[1,5-a]pyrimidin-6-yl)methyl)acrylamide], for which the EC50 is more than 20000 nM.

`Cn1ncc2c1CC(CNS(C)(=O)=O)CN2c1ccc(C(F)(F)F)cc1` (stereo not shown) [Cpd. No. 076, N-((1-methyl-4-(4-(trifluoromethyl)phenyl)-4,5,6,7-tetrahydro-1H-pyrazolo[4,3-b]pyridin-6-yl)methyl)methanesulfonamide] returned an EC50 of more than 20000 nM.

Compound `C=CC(=O)NCC1CN(c2ccc(OC(F)(F)F)cc2)c2cc(C)nn2C1` (stereo not shown) [Cpd. No. 030, N-((2-methyl-4-(4-(trifluoromethoxy)phenyl)-4,5,6,7-tetrahydropyrazolo[1,5-a]pyrimidin-6-yl)methyl)acrylamide] showed an EC50 of less than 1000 nM.

With `CCC(=O)NCC1CN(Cc2ccc(C(F)(F)F)cc2)c2ccnn2C1` (stereo not shown) [Cpd. No. 050, N-((4-(4-(trifluoro-methyl)benzyl)-4,5,6,7-tetrahydropyrazolo[1,5-a]pyrimidin-6-yl)-methyl)propionamide], the EC50 was more than 20000 nM.

Compound `C=CC(=O)NCC1CN(c2ccc(OC(F)(F)F)cc2)c2cc(C(F)(F)F)nn2C1` (single isomer, unassigned) [Cpd. No. 035-En1, (R)- or (S)-N-((4-(4-(trifluoromethoxy)phenyl)-2-(trifluoromethyl)-4,5,6,7-tetrahydropyrazolo[1,5-a]pyrimidin-6-yl)methyl)acrylamide] yielded an EC50 of less than 1000 nM.

`C=CC(=O)NCC1CN(c2ccc(Br)cc2)c2ccnn2C1` (single isomer, unassigned) [Cpd. No. 021-En1, (R)- or (S)-N-((4-(4-bromophenyl)-4,5,6,7-tetrahydropyrazolo[1,5-a]pyrimidin-6-yl)methyl)acrylamide] registered an EC50 of less than 1000 nM.

Consider `CS(=O)(=O)N1CCC2(CN(c3ccc(C(F)(F)F)cc3)c3ccnn3C2)C1=O` (single isomer, unassigned) [Cpd. No. 089-En1, (R)- or (S)-1′-(methylsulfonyl)-4-(4-(trifluoromethyl)phenyl)-4,5-dihydro-7H-spiro[pyrazolo[1,5-a]pyrimidine-6,3′-pyrrolidin]-2′-one], for which the EC50 is more than 20000 nM.

For the compound `Cn1cc2c(n1)CC(CNS(C)(=O)=O)CN2c1ccc(C(F)(F)F)cc1` (stereo not shown) [Cpd. No. 077, N-((2-methyl-4-(4-(trifluoromethyl)phenyl)-4,5,6,7-tetrahydro-2H-pyrazolo[4,3-b]pyridin-6-yl)methyl)methanesulfonamide], the EC50 fell in the range of 1000 to 20000 nM.
